Measured values: PubChem BioAssay AID226 (DTP/NCI, 2004)
Values joined by “and” are separate entries in the source; they are usually repeats but may differ in a detail not shown here. Equal entries are not always repeated. Inconclusive results and toxic doses are left out.

Test system: B6C3F1 mice, intracerebral ependymoblastoma, median survival T/C
Experiment: NCI In Vivo Anticancer Drug Screen. Data for tumor model Ependymoblastoma (intracerebral) in B6C3F1 mice
Conditions: endpoint: median survival time, higher = longer survival
Method: The antitumor activity of compounds was measured in mice bearing transplantable tumors. Survival or tumor size were measured and the results are expressed as the measurement made in the treated group (T) divided by the measurement made in the vehicle treated control group (C). The tumor model used in this assay is Ependymoblastoma (intracerebral) in B6C3F1 mice

[1] = dose: 50.0 mg/kg/injection, schedule: Q01DX005 (ip), vehicle: Klucel (hydroxypropylcellulose) (HPC)
[2] = dose: 100.0 mg/kg/injection, schedule: Q01DX005 (ip), vehicle: Klucel (hydroxypropylcellulose) (HPC)
[3] = dose: 50.0 mg/kg/injection, schedule: Q01DX005 (ip), vehicle: suspension in saline
[4] = dose: 100.0 mg/kg/injection, schedule: Q01DX005 (ip), vehicle: suspension in saline
[5] = dose: 200.0 mg/kg/injection, schedule: Q01DX005 (ip), vehicle: suspension in saline

`Cc1cn(C2CC(O)C(CO)O2)c(=O)[nH]c1=O` (stereo not given) was tested, and the T/C (dose: 64.0 mg/kg/injection, schedule: Q01DX005 (ip), vehicle: suspension in saline) was 104 % of control, the T/C (dose: 125.0 mg/kg/injection, schedule: Q01DX003 (ip), vehicle: saline with Tween-80) was 95 % of control and the T/C (dose: 125.0 mg/kg/injection, schedule: Q04DX003 (ip), vehicle: saline with Tween-80) was 111 % of control. The T/C (dose: 128.0 mg/kg/injection, schedule: Q01DX005 (ip), vehicle: suspension in saline) was 94 % of control, the T/C (dose: 250.0 mg/kg/injection, schedule: Q01DX003 (ip), vehicle: saline with Tween-80) was 99 % of control and the T/C (dose: 250.0 mg/kg/injection, schedule: Q04DX003 (ip), vehicle: saline with Tween-80) was 113 % of control. The T/C (dose: 256.0 mg/kg/injection, schedule: Q01DX005 (ip), vehicle: suspension in saline) was 95 % of control, the T/C (dose: 500.0 mg/kg/injection, schedule: Q01DX003 (ip), vehicle: saline with Tween-80) was 95 % of control and the T/C (dose: 500.0 mg/kg/injection, schedule: Q04DX003 (ip), vehicle: saline with Tween-80) was 92 % of control and 120 % of control. The T/C (dose: 512.0 mg/kg/injection, schedule: Q01DX005 (ip), vehicle: suspension in saline) was 92 % of control, the T/C (dose: 800.0 mg/kg/injection, schedule: Q01DX005 (ip), vehicle: saline with Tween-80) was 98 % of control and the T/C (dose: 1000.0 mg/kg/injection, schedule: Q01DX003 (ip), vehicle: saline with Tween-80) was 107 % of control. The T/C (dose: 1000.0 mg/kg/injection, schedule: Q04DX003 (ip), vehicle: saline with Tween-80) was 106 % of control and 112 % of control, the T/C (dose: 1024.0 mg/kg/injection, schedule: Q01DX005 (ip), vehicle: suspension in saline) was 103 % of control and the T/C (dose: 1600.0 mg/kg/injection, schedule: Q01DX005 (ip), vehicle: saline with Tween-80) was 101 % of control. For the same compound, the T/C (dose: 2000.0 mg/kg/injection, schedule: Q01DX003 (ip), vehicle: saline with Tween-80) was 97 % of control, the T/C (dose: 2000.0 mg/kg/injection, schedule: Q04DX003 (ip), vehicle: saline with Tween-80) was 116 % of control and 89 % of control and the T/C (dose: 3000.0 mg/kg/injection, schedule: Q01DX003 (ip), vehicle: saline with Tween-80) was 94 % of control. For the same compound, the T/C (dose: 3000.0 mg/kg/injection, schedule: Q04DX003 (ip), vehicle: saline with Tween-80) was 94 % of control and 104 % of control and the T/C (dose: 3200.0 mg/kg/injection, schedule: Q01DX005 (ip), vehicle: saline with Tween-80) was 91 % of control.
In the case of `C/C(=C\c1ccccc1)[N+](=O)[O-]`, the T/C (dose: 3.12 mg/kg/injection, schedule: Q01DX005 (ip), vehicle: Klucel (hydroxypropylcellulose) (HPC)) is reported as 96 % of control, the T/C (dose: 6.25 mg/kg/injection, schedule: Q01DX005 (ip), vehicle: Klucel (hydroxypropylcellulose) (HPC)) is reported as 100 % of control and the T/C (dose: 12.5 mg/kg/injection, schedule: Q01DX005 (ip), vehicle: Klucel (hydroxypropylcellulose) (HPC)) is reported as 92 % of control. For the same compound, the T/C (dose: 25.0 mg/kg/injection, schedule: Q01DX005 (ip), vehicle: Klucel (hydroxypropylcellulose) (HPC)) was 92 % of control, the T/C [1] was 91 % of control and the T/C [2] was 91 % of control.
`COc1ccc2cc1Oc1ccc(cc1)C[C@H]1c3cc(c(OC)cc3CCN1C)Oc1c(OC)c(OC)cc3c1[C@H](C2)N(C)CC3` was tested, and the T/C [1] was 100 % of control, the T/C [2] was 88 % of control and the T/C (dose: 200.0 mg/kg/injection, schedule: Q01DX005 (ip), vehicle: Klucel (hydroxypropylcellulose) (HPC)) was 108 % of control. For the same compound, the T/C (dose: 400.0 mg/kg/injection, schedule: Q01DX005 (ip), vehicle: Klucel (hydroxypropylcellulose) (HPC)) was 91 % of control.
With `O=NN(CCF)C(=O)NC1CCC(=O)NC1=O` (stereo not given) the T/C (dose: 5.18 mg/kg/injection, schedule: Q01DX005 (ip), vehicle: Klucel (hydroxypropylcellulose) (HPC)) was 186 % of control, the T/C (dose: 8.64 mg/kg/injection, schedule: Q01DX005 (ip), vehicle: Klucel (hydroxypropylcellulose) (HPC)) was 232 % of control and the T/C (dose: 14.4 mg/kg/injection, schedule: Q01DX005 (ip), vehicle: Klucel (hydroxypropylcellulose) (HPC)) was 357 % of control. The T/C (dose: 24.0 mg/kg/injection, schedule: Q01DX005 (ip), vehicle: Klucel (hydroxypropylcellulose) (HPC)) was 357 % of control.
For `CC1CN1C(=O)NCCCCCCNC(=O)N1CC1C` (stereo not given), the T/C (dose: 1.25 mg/kg/injection, schedule: Q01DX005 (ip), vehicle: Klucel (hydroxypropylcellulose) (HPC)) was 105 % of control, the T/C (dose: 2.5 mg/kg/injection, schedule: Q01DX005 (ip), vehicle: Klucel (hydroxypropylcellulose) (HPC)) was 108 % of control and the T/C (dose: 5.0 mg/kg/injection, schedule: Q01DX005 (ip), vehicle: Klucel (hydroxypropylcellulose) (HPC)) was 120 % of control. For the same compound, the T/C (dose: 10.0 mg/kg/injection, schedule: Q01DX005 (ip), vehicle: Klucel (hydroxypropylcellulose) (HPC)) was 109 % of control.
With `CSc1nc(N)nc2c1ncn2C1OC(CO)C(O)C1O` (stereo not given) the T/C [3] was 108 % of control, the T/C [4] was 109 % of control and the T/C [5] was 100 % of control. The T/C (dose: 400.0 mg/kg/injection, schedule: Q01DX005 (ip), vehicle: suspension in saline) was 96 % of control.
In the case of `O=C(O)C(O)C(O)C(=O)O.[NH-]C1CCCCC1[NH-].[Pt+2]` (stereo not given), the T/C (dose: 2.0 mg/kg/injection, schedule: Q01DX005 (ip), vehicle: dextrose) is reported as 96 % of control and the T/C (dose: 4.0 mg/kg/injection, schedule: Q01DX005 (ip), vehicle: dextrose) is reported as 110 % of control.
In the case of `CCC(=O)O[C@H]1CC[C@H]2[C@@H]3[C@@H](C)CC4=CC(=O)CC[C@]4(C)[C@H]3CC[C@]12C`, the T/C (dose: 32.0 mg/kg/injection, schedule: Q01DX005 (ip), vehicle: saline with Tween-80) is reported as 99 % of control and 106 % of control, the T/C (dose: 64.0 mg/kg/injection, schedule: Q01DX005 (ip), vehicle: saline with Tween-80) is reported as 97 % of control and 106 % of control and the T/C (dose: 128.0 mg/kg/injection, schedule: Q01DX005 (ip), vehicle: saline with Tween-80) is reported as 97 % of control and 101 % of control. The T/C (dose: 256.0 mg/kg/injection, schedule: Q01DX005 (ip), vehicle: saline with Tween-80) was 101 % of control and 89 % of control, the T/C (dose: 512.0 mg/kg/injection, schedule: Q01DX005 (ip), vehicle: saline with Tween-80) was 93 % of control and 100 % of control and the T/C (dose: 768.0 mg/kg/injection, schedule: Q01DX005 (ip), vehicle: saline with Tween-80) was 94 % of control.
In the case of `CN(N=O)C(=O)Nc1c[nH]c(=O)[nH]c1=O`, the T/C (dose: 16.0 mg/kg/injection, schedule: Q01DX005 (ip), vehicle: saline with Tween-80) is reported as 114 % of control.
With `NC(CO)(CO)CO` the T/C (dose: 200.0 mg/kg/injection, schedule: Q01DX005 (ip), vehicle: saline) was 98 % of control, the T/C (dose: 400.0 mg/kg/injection, schedule: Q01DX005 (ip), vehicle: saline) was 110 % of control and the T/C (dose: 800.0 mg/kg/injection, schedule: Q01DX005 (ip), vehicle: saline) was 105 % of control. The T/C (dose: 1600.0 mg/kg/injection, schedule: Q01DX005 (ip), vehicle: saline) was 110 % of control.
For `NC(=O)c1ncn(C2OC(CO)C(O)C2O)n1` (stereo not given), the T/C (dose: 20.0 mg/kg/injection, schedule: Q01DX005 (ip), vehicle: saline) was 99 % of control and 100 % of control, the T/C (dose: 40.0 mg/kg/injection, schedule: Q01DX005 (ip), vehicle: saline) was 98 % of control and 101 % of control and the T/C (dose: 80.0 mg/kg/injection, schedule: Q01DX005 (ip), vehicle: saline) was 92 % of control and 103 % of control. The T/C (dose: 160.0 mg/kg/injection, schedule: Q01DX005 (ip), vehicle: saline) was 104 % of control and 121 % of control and the T/C (dose: 320.0 mg/kg/injection, schedule: Q01DX005 (ip), vehicle: saline) was 97 % of control and 118 % of control.
With `CCOC(=O)CC(SP(=S)(OC)OC)C(=O)OCC` (stereo not given) the T/C (dose: 25.0 mg/kg/injection, schedule: Q01DX005 (ip), vehicle: suspension in saline) was 100 % of control, the T/C [3] was 124 % of control and the T/C [4] was 101 % of control. The T/C [5] was 105 % of control.
`C[C@]1(O)CC[C@H]2[C@@H]3CCC4=CC(=O)CC[C@]4(C)[C@@]3(F)[C@@H](O)C[C@@]21C` was tested, and the T/C (dose: 8.0 mg/kg/injection, schedule: Q01DX005 (ip), vehicle: Klucel (hydroxypropylcellulose) (HPC)) was 91 % of control and 102 % of control, the T/C (dose: 16.0 mg/kg/injection, schedule: Q01DX005 (ip), vehicle: Klucel (hydroxypropylcellulose) (HPC)) was 96 % of control and 102 % of control and the T/C (dose: 32.0 mg/kg/injection, schedule: Q01DX005 (ip), vehicle: Klucel (hydroxypropylcellulose) (HPC)) was 93 % of control. The T/C (dose: 64.0 mg/kg/injection, schedule: Q01DX005 (ip), vehicle: Klucel (hydroxypropylcellulose) (HPC)) was 97 % of control and 98 % of control, the T/C (dose: 128.0 mg/kg/injection, schedule: Q01DX005 (ip), vehicle: Klucel (hydroxypropylcellulose) (HPC)) was 92 % of control and 104 % of control and the T/C (dose: 256.0 mg/kg/injection, schedule: Q01DX005 (ip), vehicle: Klucel (hydroxypropylcellulose) (HPC)) was 93 % of control and 97 % of control. For the same compound, the T/C (dose: 512.0 mg/kg/injection, schedule: Q01DX005 (ip), vehicle: Klucel (hydroxypropylcellulose) (HPC)) was 91 % of control.
In the case of `CCN(CC)CCOc1ccc(/C(=C(\Cl)c2ccccc2)c2ccccc2)cc1`, the T/C (dose: 8.0 mg/kg/injection, schedule: Q01DX005 (ip), vehicle: saline) is reported as 101 % of control and 106 % of control, the T/C (dose: 16.0 mg/kg/injection, schedule: Q01DX005 (ip), vehicle: saline) is reported as 93 % of control and 100 % of control and the T/C (dose: 32.0 mg/kg/injection, schedule: Q01DX005 (ip), vehicle: saline) is reported as 92 % of control and 103 % of control. The T/C (dose: 64.0 mg/kg/injection, schedule: Q01DX005 (ip), vehicle: saline) was 101 % of control and 104 % of control.
